# According to the RepoRT retention time repository:
# Assay: RP, Thermo Scientific Hypersil GOLD, 1.9 µm, 40 °C, 0.4 mL/min; A: water + 0.1% formic acid, pH 3; B: acetonitrile + 0.1% formic acid, pH 3; gradient (min/%B) 0/0 1/0 11/100 13/100 14/0 16/0
# Settings: stereoisomer not certain
row,LC retention time [min],SMILES
1,0.82,NC(CCOC(=O)CCC(=O)O)C(=O)O (stereo unspecified) [O-SUCCINYL-HOMOSERINE]
2,5.58,O=C(O)CCCCCCC(=O)O [SUBERATE]
3,5.24,O=c1c(-c2ccc(O)cc2)coc2cc(OC3OC(CO)C(O)C(O)C3O)ccc12 (stereo unspecified) [daidzin]
4,5.13,COc1cc(CC(=O)O)ccc1O [HOMOVANILLATE]
5,0.61,OCC1OC(OC2C(CO)OC(OC3C(CO)OC(O)C(O)C3O)C(O)C2O)C(O)C(O)C1O (stereo unspecified) [Maltotriose]
6,4.38,O=C(O)C(O)Cc1ccc(O)cc1 (stereo unspecified) [HYDROXYPHENYLLACTATE]
7,0.65,Nc1ccnc(=O)[nH]1 [CYTOSINE]
8,5.53,O=c1c(OC2OC(CO)C(O)C(O)C2O)c(-c2ccc(O)c(O)c2)oc2cc(O)cc(O)c12 [Quercetin-3-beta-D-glucoside]
9,0.78,Nc1ccn(C2OC(CO)C(O)C2O)c(=O)n1 (stereo unspecified) [CYTIDINE]
10,0.54,NC(CO)Cc1cnc[nH]1 (stereo unspecified) [HISTIDINOL]
11,0.61,NCCOP(=O)(O)O [O-PHOSPHOETHANOLAMINE]
12,9.45,CCCCCCCCCCCCCCCC(O)C(N)CO (stereo unspecified) [SPHINGANINE]
13,9.21,COC1=C(OC)C(=O)C(CC=C(C)C)=C(C)C1=O [coenzyme Q1]
14,0.54,NCCCCN [PUTRESCINE]
15,4.28,CSCC[C@H](NC=O)C(=O)O [N-FORMYL-L-METHIONINE]
16,6.53,NC(=O)CCCCC1CCSS1 (stereo unspecified) [LIPOAMIDE]
17,0.7,Cc1cnc(=O)[nH]c1N [5-METHYLCYTOSINE]
18,0.64,O=CC(O)CO (stereo unspecified) [GLYCERALDEHYDE]
19,4.45,O=C(O)c1cc(=O)c2cccc(O)c2[nH]1 [XANTHURENATE]
20,6,O=C(O)C(=O)Cc1c[nH]c2ccccc12 [INDOLE-3-PYRUVATE]
21,5.83,CC(=O)NC(Cc1c[nH]c2ccccc12)C(=O)O (stereo unspecified) [N-ACETYLTRYPTOPHAN]
22,1.62,CC(C)(O)C(=O)O [ALPHA-HYDROXYISOBUTYRATE]

row,LC retention time [min],SMILES
1,0.71,CC(=O)NCCCCN [N-ACETYLPUTRESCINE]
2,0.81,Nc1nc2c(ncn2C2OC(COP(=O)(O)O)C(O)C2O)c(=O)[nH]1 (stereo unspecified) [GUANOSINE MONOPHOSPHATE]
3,0.82,NC(=O)c1ccc[n+](C2OC(COP(=O)(O)OP(=O)(O)OCC3OC(n4cnc5c(=O)[nH]cnc54)C(O)C3O)C(O)C2O)c1 (stereo unspecified) [NICOTINAMIDE HYPOXANTHINE DINUCLEOTIDE]
4,4.97,COc1cc(C(=O)O)ccc1O [Vanillic acid]
5,6.38,O=C(O)CC(Cc1ccccc1)C(=O)O (racemic) [dl-benzylsuccinic acid]
6,4.85,CC(C)(CC(=O)O)C(=O)O [2-2-Dimethylsuccinic acid]
7,0.83,Cn1c[n+](C2OC(CO)C(O)C2O)c2nc(N)[nH]c(=O)c21 (stereo unspecified) [7-Methylguanosine]
8,5.04,O=C(O)c1cccc(O)c1 [3-HYDROXYBENZOATE]
9,0.67,O=P(O)(O)OCC(O)CO (stereo unspecified) [GLYCEROL 3-PHOSPHATE]
10,0.82,Nc1nc2nccnc2c(=O)[nH]1 [PTERIN]
11,6.55,O=c1c(O)c(-c2ccc(O)c(O)c2)oc2cc(O)cc(O)c12 [quercetine dihydrate]
12,1.23,CC(O)(CC(=O)O)C(=O)O (stereo unspecified) [CITRAMALATE]
13,0.65,OCC1OC(OC2OC(CO)C(O)C(O)C2O)C(O)C(O)C1O (stereo unspecified) [TREHALOSE]
14,2.15,COc1cc(C(O)C(=O)O)ccc1O (stereo unspecified) [3-METHOXY-4-HYDROXYMANDELATE]
15,1.47,Cc1c[nH]c(=O)[nH]c1=O [THYMINE]
16,7.35,CC(=O)C1(O)CCC2C3CCC4=CC(=O)CCC4(C)C3C(O)CC21C (stereo unspecified) [21-Deoxycortisol]
17,4.64,NC(=O)c1ncccc1O [3-Hydroxypicolinamide]
18,0.83,O=C(O)c1ccc[n+]([O-])c1 [Nicotinic acid N-oxide]
19,0.81,O=C(O)c1cccnc1 [Nicotinic acid]
20,0.59,Cn1cnc(C[C@H](N)C(=O)O)c1 [1-METHYL-L-HISTIDINE]
21,2.61,Cn1c(=O)[nH]c(=O)c2[nH]cnc21 [3-Methylxanthine]
22,0.86,Nc1ncnc2c1ncn2C1OC(CO)C(O)C1O (stereo unspecified) [ADENOSINE]

row,LC retention time [min],SMILES
1,4.42,Cn1c(=O)c2[nH]cnc2n(C)c1=O [THEOPHYLLINE]
2,0.61,NC(CCSCC(N)C(=O)O)C(=O)O (stereo unspecified) [CYSTATHIONINE]
3,7.63,CCCCCCCCCC(=O)OC(CC(=O)[O-])C[N+](C)(C)C [Decanoyl-L-carnitine]
4,0.91,O=C(O)C(O)c1ccc(O)c(O)c1 (stereo unspecified) [3-4 DIHYDROXYMANDELATE]
5,8.17,CC(CCC(=O)O)C1CCC2C3C(O)CC4CC(O)CCC4(C)C3CC(O)C12C (stereo unspecified) [CHOLATE]
6,0.65,NC(=O)NCCCC(N)C(=O)O (stereo unspecified) [CITRULLINE]
7,0.82,Cc1ncc(CO)c(CO)c1O [PYRIDOXINE]
8,4.52,O=C(O)c1cc(O)ccc1O [2-5-DIHYDROXYBENZOATE]
9,6.67,O=C(O)CCCCCCCCC(=O)O [Sebacic acid]
10,5.05,"O=C(OC1Cc2c(O)cc(O)cc2OC1c1cc(O)c(O)c(O)c1)c1cc(O)c(O)c(O)c1 (single isomer, unassigned; (-)) [(-)-Epigallocatechin gallate]"
11,9.69,CCCCCCCCCCCCCCCC(=O)OC(CC(=O)[O-])C[N+](C)(C)C [Palmitoyl-L-carnitine]
12,0.69,O=C(O)C1CCCN1 (stereo unspecified) [PROLINE]
13,0.89,O=C(O)C(=O)CS [MERCAPTOPYRUVATE]
14,0.64,O=P(O)(O)O [Phosphoric acid_+H+]
15,0.92,C[Se]CCC(N)C(=O)O (stereo unspecified) [SELENOMETHIONINE]
16,0.67,NC(CS(=O)O)C(=O)O (stereo unspecified) [3-SULFINOALANINE]
17,5.47,CC1NC(=O)NC1CCCCCC(=O)O (stereo unspecified) [DETHIOBIOTIN]
18,0.82,Nc1cc(C(=O)O)ccc1[O-] [3-AMINO-4-HYDROXYBENZOATE]
19,1.09,O=c1cccc(O)[nH]1 [2-6-DIHYDROXYPYRIDINE]
20,7.04,O=C1CC(c2ccc(O)cc2)Oc2cc(O)cc(O)c21 (stereo unspecified) [Naringenin]

row,SMILES,LC retention time [min]
1,O=C(O)c1ccc(=O)[nH]c1 [6-HYDROXYNICOTINATE],1.5
2,NCCc1c[nH]c2ccccc12 [TRYPTAMINE],4.7
3,CCCCC(CC)COC(=O)c1ccccc1C(=O)OCC(CC)CCCC (stereo unspecified) [BIS(2-ETHYLHEXYL)PHTHALATE],13
4,NCCCNCCCN [NORSPERMIDINE],0.49
5,CC(=O)OCC(=O)O [Acetoxyacetic acid],1.93
6,CNCCc1c[nH]c2ccccc12 [N-METHYLTRYPTAMINE],4.93
7,CC12CCC3C(CC=C4CC(O)CCC43C)C1CCC2=O (stereo unspecified) [3-b-Hydroxyandrost-5-en-17-one (Dehydroepiandrosterone)],4.86
